Data on one molecule can be found in patent publication US20170071944A1, “MODULATORS OF TOLL-LIKE RECEPTORS FOR THE TREATMENT OF HIV” (Gilead Sciences, Inc., priority 2015, published 2017).

SMILES strings stand for the structures. Several values for one entry are separate records, joined by “and”; a condition that tells them apart may be missing. Equal entries are not always repeated.

In the experiment the test system is HIV-1 expression in PBMC cultures from HIV-1 infected subjects on cART. Briefly: Induced HIV-1 expression in PBMC cultures from HIV-1 infected subjects on cART (HIV-1 RNA in culture supernatant, COBAS TaqMan). Particulars: for Fold HIV-1 Activation, Geometric Mean with ≧2-Fold-Activation / Fold HIV-1 Activation, Range with ≧2-Fold-Activation: N = 12 subjects. The class given is cell-based, human. The procedure: In some experiments, IL-15, the TLR8 modulating compound of Example 15 or the combination of IL-15 and Example 15 were used at the indicated concentrations (Table 4). The cultures were maintained in the presence of antivirals (elvitegravir and efavirenz at 100 nM each) to prevent viral spread and amplification in order to measure the quantity of virus produced (latency reversal) by the TLR8 modulating compounds. At the end of the incubation period, cell-free culture supernatants were harvested and HIV-1 RNA levels were quantified by the COBAS® AmpliPrep/COBAS®TaqMan HIV-1 Test, v2.0 (Roche).
In each table, fold-activation is calculated as a ratio of HIV-1 RNA copies per ml of cell culture supernatants from TLR8 agonist treated samples and DMSO treated controls. Geometric mean fold-activation from three independent incubation samples for each condition of each subject's PBMCs.
To assess if the latency reversal induced by TLR8 agonism could further potentiate latency reversal by a separate mechanisms, we treated cells as described above with IL-15, Example 15, or a combination of IL-15 and Example 15 (Table 4).
For orientation: Quantitative PCR measures a nucleic acid by following its amplification.

[1] abbreviates: Example 15 1000 nM and/or IL-15 1 nM, subjects 205-210.

For `CCCC[C@H](CO)Nc1nc(N)nc2cccnc12` [Example 15], the “Fold HIV-1 Activation, Geometric Mean with ≧2-Fold-Activation” value is, setting by setting: (10 nM) 4.6 fold; (100 nM) 4.8 fold; (1,000 nM) 3.4 fold; (10, 100, or 1000 nM) 4.4 fold. The “Fold HIV-1 Activation, Range with ≧2-Fold-Activation” value by setting is: (10 nM) 2.2-20.1 fold; (100 nM) 2.2-10.1 fold; (1,000 nM) 2.4-5.7 fold; (10, 100, or 1000 nM) 2.2-20.1 fold. The “N with ≧2-Fold-Activation (%)” value by setting is: (10 nM, subjects 172-183) “(42) %”; (100 nM, subjects 172-183) “(33) %”; (1,000 nM, subjects 172-183) “(58) %”; under setting [1], 50%. In addition, the “Fold HIV-1 Activation” value by setting is: (Example 15 10 nM, 4 days, individual subjects 172-183, vs DMSO) 2.6 fold and 2.2 fold and 4.7 fold and 1.2 fold and 1.9 fold and 1.3 fold and 0.3 fold and 0.5 fold and 1.0 fold and 4.1 fold and 20.1 fold and 0.8 fold; (Example 15 100 nM, 4 days, individual subjects 172-183, vs DMSO) 3.8 fold and 6.6 fold and 2.2 fold and 1.5 fold and 1.0 fold and 0.5 fold and 0.2 fold and 0.1 fold and 0.7 fold and 1.8 fold and 10.1 fold and 1.3 fold; (Example 15 1000 nM and/or IL-15 1 nM, individual subjects 205-210, vs DMSO) 4.7 fold and 0.8 fold and 9.7 fold and 2.0 fold and 1.9 fold and 0.6 fold; (Example 15 1,000 nM, 4 days, individual subjects 172-183, vs DMSO) 2.7 fold and 2.4 fold and 3.3 fold and 1.2 fold and 4.7 fold and 0.3 fold (2×) and 3.4 fold and 3.0 fold and 1.3 fold and 1.6 fold and 5.7 fold. In addition, where the note is “Example 15 1000 nM and/or IL-15 1 nM, N = 6 subjects”, the “Fold HIV-1 Activation, Geometric Mean” value was found to be 2.1 fold. Besides, the “N with ≧2-Fold-Activation” value under setting [1] is on record as 3 of 6.
